From article PMC10480161, “Identification of potent and selective N-myristoyltransferase inhibitors of Plasmodium vivax liver stage hypnozoites and schizonts” (Nature Communications, 2023)
pIC50: −log10 of the molar value. Values joined by “and” are separate entries in the source; they are usually repeats but may differ in a detail not shown here. Equal values may be shown once.

Legend:
P. falciparum NF54 = test: P. falciparum blood stage assay (SYBR Green); type: cell-based, Plasmodium falciparum; details: 72 h; for P. falciparum blood-stage development (parasite DNA level fluorescence): untreated = 129
P. vivax schizonts = test: P. vivax liver stage assay, schizonts; type: cell-based, Plasmodium vivax; details: for Number of liverstage Schizonts per well: 20 µM, 8 dpi
Method in brief: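 Primary human hepatocytes (single donor, 25,000/well) infected with 14,000 P. vivax sporozoites per well from patient isolates; compounds (up to 20 µM) given daily from day 5 to day 8 post-infection. Schizonts counted by PvUIS4/DAPI confocal imaging; DAPI nuclei count used as toxicity measure.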

P. vivax hypnozoites = test: P. vivax liver stage assay, hypnozoites; type: cell-based, Plasmodium vivax; details: for Hypnozoites per well: Isolate 2, replicate wells (Figure 6d); for Number of liverstage hypnozoites per well: 20 µM, 8 dpi
Method in brief: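 Primary human hepatocytes infected with P. vivax sporozoites, then exposed to compound daily from day 5 to day 8 post-infection. Fixed cells stained with DAPI and PvUIS4 antibody; hypnozoites and schizonts counted by confocal imaging. MMV390048 at 20 µM served as schizont-eliminating control.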

PvNMT = PvNMT (Plasmodium vivax, UniProt A5K1A2); test: NMT activity assay (CPM detection of free CoA), PvNMT
HsNMT1 = molecular target: T1, HsNMT1 (Homo sapiens, UniProt P30419); test: NMT activity assay (CPM detection of free CoA), HsNMT; details: read-out: HsNMT IC50; mean of two or more determinations
T1 sequence (P30419 1-496): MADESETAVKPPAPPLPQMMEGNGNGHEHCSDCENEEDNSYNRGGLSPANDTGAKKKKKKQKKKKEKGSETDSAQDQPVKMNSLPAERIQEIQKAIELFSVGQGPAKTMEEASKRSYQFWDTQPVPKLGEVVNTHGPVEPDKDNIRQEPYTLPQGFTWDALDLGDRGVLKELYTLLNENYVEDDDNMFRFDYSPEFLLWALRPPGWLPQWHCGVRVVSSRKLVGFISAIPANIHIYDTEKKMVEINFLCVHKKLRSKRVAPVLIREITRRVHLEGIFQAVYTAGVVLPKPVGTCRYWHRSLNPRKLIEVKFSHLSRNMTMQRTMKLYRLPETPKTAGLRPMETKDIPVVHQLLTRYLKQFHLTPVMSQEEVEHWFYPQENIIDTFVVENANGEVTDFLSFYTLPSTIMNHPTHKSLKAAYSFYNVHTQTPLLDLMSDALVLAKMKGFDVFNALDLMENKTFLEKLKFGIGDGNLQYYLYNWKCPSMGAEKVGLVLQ

PvNMT, sequence (A5K1A2 entry or part of it): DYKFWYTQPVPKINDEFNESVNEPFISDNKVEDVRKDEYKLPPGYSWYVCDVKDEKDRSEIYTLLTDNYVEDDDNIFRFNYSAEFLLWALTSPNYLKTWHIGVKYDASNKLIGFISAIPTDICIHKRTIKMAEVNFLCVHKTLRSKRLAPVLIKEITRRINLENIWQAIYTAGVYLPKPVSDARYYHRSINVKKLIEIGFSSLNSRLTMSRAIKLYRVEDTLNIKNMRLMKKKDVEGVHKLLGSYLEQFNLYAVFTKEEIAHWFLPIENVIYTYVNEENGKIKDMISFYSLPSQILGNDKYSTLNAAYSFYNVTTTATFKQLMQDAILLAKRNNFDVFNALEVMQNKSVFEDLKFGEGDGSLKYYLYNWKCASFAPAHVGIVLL

Cc1nn(C)c(C)c1CCOc1ccc2ccccc2c1-c1ccnc(N2CCNCC2)c1 [Compound 30a]
P. falciparum blood-stage development (parasite DNA level fluorescence) (P. falciparum NF54; 0.625 uM): 115.4
P. falciparum blood-stage development (parasite DNA level fluorescence) (P. falciparum NF54; 1.25 uM): 121.5
P. falciparum blood-stage development (parasite DNA level fluorescence) (P. falciparum NF54; 2.5 uM): 115.2
P. falciparum blood-stage development (parasite DNA level fluorescence) (P. falciparum NF54; 5 uM): 95.74
P. falciparum blood-stage development (parasite DNA level fluorescence) (P. falciparum NF54; 10 uM): 95.74
pIC50 (P. falciparum NF54; ring-stage parasites, relative IC50): 6.36
Number of liverstage Schizonts per well (P. vivax schizonts; isolate 1, technical replicates (Fig. 5b)): 0 per well
Number of liverstage Schizonts per well (P. vivax schizonts; isolate 2, technical replicates (Fig. 5b)): 2 per well (2×) and 0 per well
Number of liverstage Schizonts per well (P. vivax schizonts; isolate 3, technical replicates (Fig. 5b)): 4 per well and 0 per well
Schizonts per well (P. vivax schizonts; Isolate 2, 1.25 uM): 10 per well and 11 per well and 19 per well
Schizonts per well (P. vivax schizonts; Isolate 2, 2.5 uM): 11 per well and 12 per well and 16 per well
Schizonts per well (P. vivax schizonts; Isolate 2, 5 uM): 6 per well and 8 per well and 11 per well
Schizonts per well (P. vivax schizonts; Isolate 2, 10 uM): 4 per well and 7 per well and 8 per well
Schizonts per well (P. vivax schizonts; Isolate 3, 1.25 uM): 13 per well and 11 per well
Schizonts per well (P. vivax schizonts; Isolate 3, 2.5 uM): 7 per well and 6 per well
Schizonts per well (P. vivax schizonts; Isolate 3, 5 uM): 8 per well and 4 per well
Schizonts per well (P. vivax schizonts; Isolate 3, 10 uM): 5 per well and 7 per well
schizonts (fold change to DMSO) mean diff (P. vivax schizonts; isolate 1, 20 µM): 1.000
schizonts (fold change to DMSO) mean diff (P. vivax schizonts; isolate 2, 20 µM): 0.9245
schizonts (fold change to DMSO) mean diff (P. vivax schizonts; isolate 3, 20 µM): 0.8636
pIC50 (P. vivax schizonts; primary human hepatocytes, treatment day 5 to 8 post-infection, isolates 2 and 3): 5.37 to 5.54
Hypnozoites per well (P. vivax hypnozoites; 1.25 uM): 6 and 9 and 13
Hypnozoites per well (P. vivax hypnozoites; 2.5 uM): 5 and 0 and 3
Hypnozoites per well (P. vivax hypnozoites; 5 uM): 2 (2×) and 0
Hypnozoites per well (P. vivax hypnozoites; 10 uM): 1 and 0 and 2
Number of liverstage hypnozoites per well (P. vivax hypnozoites; isolate 1, technical replicates (Fig. 6C)): 0 per well
Number of liverstage hypnozoites per well (P. vivax hypnozoites; isolate 2, technical replicates (Fig. 6C)): 0 per well
Number of liverstage hypnozoites per well (P. vivax hypnozoites; isolate 3, technical replicates (Fig. 6C)): 0 per well
Hypnozoites per well (P. vivax hypnozoites; 20 uM): 0
hypnozoites (fold change to DMSO) mean diff (P. vivax hypnozoites; isolate 1, 20 µM): 0.954
hypnozoites (fold change to DMSO) mean diff (P. vivax hypnozoites; isolate 2, 20 µM): 1.000
pIC50 (P. vivax hypnozoites; primary human hepatocytes, treatment day 5 to 8 post-infection, isolate 2): 5.68
SI (PvNMT; enzyme selectivity, HsNMT IC50/PvNMT IC50): 269.8
pIC50 (PvNMT; read-out: PvNMT IC50, mean of two or more determinations): 7.05
pIC50 (HsNMT1): 4.62
